Measurements from US20090105270A1, “Kinase inhibition and anticancer therapy” (priority 2007, published 2009).

Columns and labels:
[1] = molecular target: CK2(h) (Homo sapiens, UniProt P68400); assay: Upstate kinase activity inhibition assay CK2(h); conditions: 40 min, read-out: percentage of enzyme activity that remains
[2] = molecular target: T1, PKCε(h) (Homo sapiens, UniProt Q02156); assay: Upstate kinase activity inhibition assay PKCε(h); type: biochemical; conditions: 40 min; read-out: percentage of enzyme activity that remains
T1 construct: purchased Upstate (KinaseProfiler service)

[3] = molecular target: TrkB(h) (Homo sapiens, UniProt Q16620); assay: Upstate kinase activity inhibition assay TrkB(h); conditions: 40 min, read-out: percentage of enzyme activity that remains
[4] = molecular target: PKCζ(h) (Homo sapiens, UniProt Q05513); assay: Upstate kinase activity inhibition assay PKCζ(h); conditions: 40 min, read-out: percentage of enzyme activity that remains
[5] = molecular target: Flt3(D835Y)(h) (Homo sapiens, UniProt P36888, D835Y); assay: Upstate kinase activity inhibition assay Flt3(D835Y)(h); conditions: 40 min, read-out: percentage of enzyme activity that remains
[6] = molecular target: PAK5(h) (Homo sapiens, UniProt Q9P286); assay: Upstate kinase activity inhibition assay PAK5(h); conditions: 40 min, read-out: percentage of enzyme activity that remains
[7] = molecular target: PKA(h) (Homo sapiens, UniProt P17612); assay: Upstate kinase activity inhibition assay PKA(h); type: biochemical; conditions: 40 min; read-out: percentage of enzyme activity that remains
[8] = molecular target: DMPK(h) (Homo sapiens, UniProt Q09013); assay: Upstate kinase activity inhibition assay DMPK(h); conditions: 40 min, read-out: percentage of enzyme activity that remains
[9] = molecular target: T2, PKG1β(h) (Homo sapiens, UniProt Q13976); assay: Upstate kinase activity inhibition assay PKG1β(h); type: biochemical; conditions: 40 min; read-out: percentage of enzyme activity that remains
T2 construct: purchased Upstate (KinaseProfiler service)

[10] = molecular target: T3, Ret(h) (Homo sapiens, UniProt P07949); assay: Upstate kinase activity inhibition assay Ret(h); type: biochemical; conditions: 40 min; read-out: percentage of enzyme activity that remains
T3 construct: purchased Upstate (KinaseProfiler service)

[11] = molecular target: SGK3(h) (Homo sapiens, UniProt Q96BR1); assay: Upstate kinase activity inhibition assay SGK3(h); conditions: 40 min, read-out: percentage of enzyme activity that remains
[12] = molecular target: T4, PDK1(h) (Homo sapiens, UniProt O15530); assay: Upstate kinase activity inhibition assay PDK1(h); type: biochemical; conditions: 40 min; read-out: percentage of enzyme activity that remains
T4 construct: purchased Upstate (KinaseProfiler service)

[13] = molecular target: T5, Ron(h) (Homo sapiens, UniProt Q04912); assay: Upstate kinase activity inhibition assay Ron(h); type: biochemical; conditions: 40 min; read-out: percentage of enzyme activity that remains
T5 construct: purchased Upstate (KinaseProfiler service)

[14] = molecular target: T6, PKCβI(h) (Homo sapiens, UniProt P05771); assay: Upstate kinase activity inhibition assay PKCβI(h); type: biochemical; conditions: 40 min; read-out: percentage of enzyme activity that remains
T6 construct: purchased Upstate (KinaseProfiler service)

[15] = molecular target: NLK (h) (Homo sapiens, UniProt Q9UBE8); assay: Upstate kinase activity inhibition assay NLK (h); conditions: 40 min, read-out: percentage of enzyme activity that remains
[16] = molecular target: T7, CDK9/cyclin T1(h) (Homo sapiens, UniProt P50750); assay: Upstate kinase activity inhibition assay CDK9/cyclin T1(h); type: biochemical; conditions: 40 min; read-out: percentage of enzyme activity that remains
T7 construct: purchased Upstate (KinaseProfiler service)

[17] = molecular target: KDR(h) (Homo sapiens, UniProt P35968); assay: Upstate kinase activity inhibition assay KDR(h); conditions: 40 min, read-out: percentage of enzyme activity that remains
[18] = molecular target: T8, TSSK2(h) (Homo sapiens, UniProt Q96PF2); assay: Upstate kinase activity inhibition assay TSSK2(h); type: biochemical; conditions: 40 min; read-out: percentage of enzyme activity that remains
T8 construct: purchased Upstate (KinaseProfiler service)

[19] = molecular target: T9, CDK3/cyclinE(h) (Homo sapiens, UniProt Q00526); assay: Upstate kinase activity inhibition assay CDK3/cyclinE(h); type: biochemical; conditions: 4 μM Compound E
T9 construct: purchased Upstate (KinaseProfiler service)

[20] = molecular target: PKCθ(h) (Homo sapiens, UniProt Q04759); assay: Upstate kinase activity inhibition assay PKCθ(h); conditions: 40 min, read-out: percentage of enzyme activity that remains
[21] = molecular target: MKK7β(h) (Homo sapiens, UniProt O14733); assay: Upstate kinase activity inhibition assay MKK7β(h)
[22] = molecular target: ROCK-II(h) (Homo sapiens, UniProt O75116); assay: Upstate kinase activity inhibition assay ROCK-II(h); conditions: 40 min, read-out: percentage of enzyme activity that remains
[23] = molecular target: T10, Pim-2(h) (Homo sapiens, UniProt Q9P1W9); assay: Upstate kinase activity inhibition assay Pim-2(h); type: biochemical; conditions: 40 min; read-out: percentage of enzyme activity that remains
T10 construct: purchased Upstate (KinaseProfiler service)

[24] = molecular target: SIK(h) (Homo sapiens, UniProt P57059); assay: Upstate kinase activity inhibition assay SIK(h)
[25] = molecular target: IGF-1R(h) (Homo sapiens, UniProt P08069); assay: Upstate kinase activity inhibition assay IGF-1R(h); conditions: 40 min, read-out: percentage of enzyme activity that remains
[26] = molecular target: T11, Fyn(h) (Homo sapiens, UniProt P06241); assay: Upstate kinase activity inhibition assay Fyn(h); type: biochemical; conditions: 40 min; read-out: percentage of enzyme activity that remains
T11 construct: purchased Upstate (KinaseProfiler service)

[27] = molecular target: SAPK4(h) (Homo sapiens, UniProt O15264); assay: Upstate kinase activity inhibition assay SAPK4(h); conditions: 40 min, read-out: percentage of enzyme activity that remains
[28] = molecular target: T12, BrSK1(h) (Homo sapiens, UniProt Q8TDC3); assay: Upstate kinase activity inhibition assay BrSK1(h); type: biochemical; conditions: 40 min; read-out: percentage of enzyme activity that remains
T12 construct: purchased Upstate (KinaseProfiler service)

[29] = molecular target: SAPK2a(h) (Homo sapiens, UniProt Q16539); assay: Upstate kinase activity inhibition assay SAPK2a(h)
[30] = molecular target: PKCι(h) (Homo sapiens, UniProt P41743); assay: Upstate kinase activity inhibition assay PKCι(h); type: biochemical; conditions: 40 min; read-out: percentage of enzyme activity that remains

Sequence of IGF-1R(h) (P08069 31-1367): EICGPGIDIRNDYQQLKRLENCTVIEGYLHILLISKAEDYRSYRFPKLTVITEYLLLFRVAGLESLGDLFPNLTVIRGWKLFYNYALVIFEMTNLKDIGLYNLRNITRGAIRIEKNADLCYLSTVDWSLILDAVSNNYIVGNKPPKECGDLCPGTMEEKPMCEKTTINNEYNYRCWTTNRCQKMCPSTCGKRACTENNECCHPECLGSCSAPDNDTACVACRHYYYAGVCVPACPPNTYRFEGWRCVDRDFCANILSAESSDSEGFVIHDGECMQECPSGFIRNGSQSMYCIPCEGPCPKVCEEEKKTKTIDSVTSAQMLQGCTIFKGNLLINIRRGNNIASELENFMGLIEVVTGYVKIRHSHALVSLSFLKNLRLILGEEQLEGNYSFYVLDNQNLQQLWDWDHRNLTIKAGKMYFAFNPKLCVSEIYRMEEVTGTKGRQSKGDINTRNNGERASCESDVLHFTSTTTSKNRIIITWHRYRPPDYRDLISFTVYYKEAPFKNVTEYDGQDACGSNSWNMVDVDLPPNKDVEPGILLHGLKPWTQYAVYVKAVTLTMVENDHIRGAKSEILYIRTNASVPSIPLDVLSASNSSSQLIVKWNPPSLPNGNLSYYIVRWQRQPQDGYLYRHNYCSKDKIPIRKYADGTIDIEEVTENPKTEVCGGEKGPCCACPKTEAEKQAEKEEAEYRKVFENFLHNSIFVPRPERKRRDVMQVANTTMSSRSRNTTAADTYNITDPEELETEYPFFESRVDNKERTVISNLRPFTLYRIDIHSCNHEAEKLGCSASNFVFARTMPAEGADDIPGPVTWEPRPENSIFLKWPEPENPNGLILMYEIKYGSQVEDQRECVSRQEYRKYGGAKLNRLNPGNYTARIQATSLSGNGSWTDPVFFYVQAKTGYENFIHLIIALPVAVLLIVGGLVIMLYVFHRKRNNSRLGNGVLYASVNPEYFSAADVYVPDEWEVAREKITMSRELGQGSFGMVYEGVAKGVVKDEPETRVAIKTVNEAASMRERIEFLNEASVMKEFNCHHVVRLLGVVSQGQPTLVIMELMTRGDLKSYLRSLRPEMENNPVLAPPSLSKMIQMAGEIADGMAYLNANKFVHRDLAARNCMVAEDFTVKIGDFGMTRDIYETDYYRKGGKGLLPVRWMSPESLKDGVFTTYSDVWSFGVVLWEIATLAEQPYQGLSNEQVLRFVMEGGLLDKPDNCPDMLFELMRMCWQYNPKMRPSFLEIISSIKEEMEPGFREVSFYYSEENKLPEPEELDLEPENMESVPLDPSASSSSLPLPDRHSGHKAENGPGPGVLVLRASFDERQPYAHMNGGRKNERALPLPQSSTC
Sequence of SAPK4(h) (O15264 whole entry): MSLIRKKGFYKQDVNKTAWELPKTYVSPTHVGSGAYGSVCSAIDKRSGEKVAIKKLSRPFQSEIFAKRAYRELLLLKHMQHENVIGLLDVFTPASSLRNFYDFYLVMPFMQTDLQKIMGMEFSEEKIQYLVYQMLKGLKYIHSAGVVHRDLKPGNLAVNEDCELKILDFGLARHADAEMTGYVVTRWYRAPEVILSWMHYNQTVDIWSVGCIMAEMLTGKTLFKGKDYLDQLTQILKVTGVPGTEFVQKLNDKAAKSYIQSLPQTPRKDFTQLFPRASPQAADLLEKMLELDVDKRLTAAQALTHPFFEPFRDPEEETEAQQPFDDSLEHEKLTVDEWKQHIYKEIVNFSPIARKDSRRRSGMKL
Sequence of PKCζ(h) (Q05513 whole entry): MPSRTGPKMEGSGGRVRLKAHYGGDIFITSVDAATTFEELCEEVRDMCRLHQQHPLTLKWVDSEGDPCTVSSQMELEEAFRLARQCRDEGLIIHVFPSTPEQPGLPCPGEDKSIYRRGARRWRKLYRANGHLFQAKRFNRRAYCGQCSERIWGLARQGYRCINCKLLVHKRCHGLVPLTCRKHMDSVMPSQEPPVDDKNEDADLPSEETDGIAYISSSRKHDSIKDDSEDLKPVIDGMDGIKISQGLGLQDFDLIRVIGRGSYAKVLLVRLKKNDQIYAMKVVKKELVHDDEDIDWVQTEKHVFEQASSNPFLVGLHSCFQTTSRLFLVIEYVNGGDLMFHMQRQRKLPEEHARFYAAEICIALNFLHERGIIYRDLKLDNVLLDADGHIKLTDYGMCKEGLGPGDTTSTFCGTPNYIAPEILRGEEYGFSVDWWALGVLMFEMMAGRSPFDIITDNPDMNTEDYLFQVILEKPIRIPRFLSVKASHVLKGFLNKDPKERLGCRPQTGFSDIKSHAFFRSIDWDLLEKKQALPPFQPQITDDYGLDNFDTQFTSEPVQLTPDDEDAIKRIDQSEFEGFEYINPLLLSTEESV
T2 sequence (Q13976 1-686 isoform Q13976-2): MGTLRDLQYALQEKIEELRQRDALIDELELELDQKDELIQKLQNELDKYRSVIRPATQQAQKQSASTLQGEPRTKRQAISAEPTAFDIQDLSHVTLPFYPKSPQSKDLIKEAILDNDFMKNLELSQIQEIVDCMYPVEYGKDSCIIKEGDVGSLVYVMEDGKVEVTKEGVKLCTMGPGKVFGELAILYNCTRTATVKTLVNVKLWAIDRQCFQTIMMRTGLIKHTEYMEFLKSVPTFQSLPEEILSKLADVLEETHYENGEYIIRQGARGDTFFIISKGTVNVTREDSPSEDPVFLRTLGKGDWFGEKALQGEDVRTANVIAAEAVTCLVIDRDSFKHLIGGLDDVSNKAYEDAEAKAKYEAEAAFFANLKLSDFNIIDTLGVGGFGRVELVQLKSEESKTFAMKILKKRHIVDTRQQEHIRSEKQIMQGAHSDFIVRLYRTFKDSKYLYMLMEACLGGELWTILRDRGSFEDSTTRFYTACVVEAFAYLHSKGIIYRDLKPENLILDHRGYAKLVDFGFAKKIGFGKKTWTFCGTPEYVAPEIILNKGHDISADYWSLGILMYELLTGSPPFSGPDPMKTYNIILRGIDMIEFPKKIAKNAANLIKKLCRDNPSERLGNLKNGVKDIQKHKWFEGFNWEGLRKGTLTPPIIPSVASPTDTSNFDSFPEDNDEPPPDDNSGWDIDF
Sequence of CK2(h) (P68400 whole entry): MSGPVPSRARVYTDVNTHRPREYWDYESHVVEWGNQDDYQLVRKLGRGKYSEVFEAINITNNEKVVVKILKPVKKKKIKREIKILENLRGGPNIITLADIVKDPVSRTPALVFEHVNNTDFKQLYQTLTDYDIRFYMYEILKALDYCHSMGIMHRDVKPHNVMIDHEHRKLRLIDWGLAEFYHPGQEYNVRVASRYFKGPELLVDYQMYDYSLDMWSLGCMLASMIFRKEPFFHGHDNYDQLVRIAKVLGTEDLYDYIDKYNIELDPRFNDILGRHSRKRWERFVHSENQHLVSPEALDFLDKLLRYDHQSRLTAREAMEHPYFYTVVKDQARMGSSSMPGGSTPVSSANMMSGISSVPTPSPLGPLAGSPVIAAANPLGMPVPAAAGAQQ
Sequence of CK2(h) (P67870 whole entry partner): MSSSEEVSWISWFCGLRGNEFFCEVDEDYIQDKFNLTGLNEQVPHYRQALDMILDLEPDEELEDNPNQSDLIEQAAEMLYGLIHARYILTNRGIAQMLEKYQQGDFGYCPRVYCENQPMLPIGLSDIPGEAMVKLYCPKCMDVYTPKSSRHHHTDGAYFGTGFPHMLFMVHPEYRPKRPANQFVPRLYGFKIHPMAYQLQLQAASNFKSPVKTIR
T10 sequence (Q9P1W9 whole entry): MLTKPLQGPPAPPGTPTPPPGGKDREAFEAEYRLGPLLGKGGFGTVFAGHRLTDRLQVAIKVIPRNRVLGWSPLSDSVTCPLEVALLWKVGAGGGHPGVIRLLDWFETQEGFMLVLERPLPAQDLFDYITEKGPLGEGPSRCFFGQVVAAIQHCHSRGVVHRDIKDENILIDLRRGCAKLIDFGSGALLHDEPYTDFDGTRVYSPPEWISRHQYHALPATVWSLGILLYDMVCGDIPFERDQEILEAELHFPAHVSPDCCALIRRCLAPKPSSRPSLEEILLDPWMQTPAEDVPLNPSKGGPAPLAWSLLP
T4 sequence (O15530 whole entry): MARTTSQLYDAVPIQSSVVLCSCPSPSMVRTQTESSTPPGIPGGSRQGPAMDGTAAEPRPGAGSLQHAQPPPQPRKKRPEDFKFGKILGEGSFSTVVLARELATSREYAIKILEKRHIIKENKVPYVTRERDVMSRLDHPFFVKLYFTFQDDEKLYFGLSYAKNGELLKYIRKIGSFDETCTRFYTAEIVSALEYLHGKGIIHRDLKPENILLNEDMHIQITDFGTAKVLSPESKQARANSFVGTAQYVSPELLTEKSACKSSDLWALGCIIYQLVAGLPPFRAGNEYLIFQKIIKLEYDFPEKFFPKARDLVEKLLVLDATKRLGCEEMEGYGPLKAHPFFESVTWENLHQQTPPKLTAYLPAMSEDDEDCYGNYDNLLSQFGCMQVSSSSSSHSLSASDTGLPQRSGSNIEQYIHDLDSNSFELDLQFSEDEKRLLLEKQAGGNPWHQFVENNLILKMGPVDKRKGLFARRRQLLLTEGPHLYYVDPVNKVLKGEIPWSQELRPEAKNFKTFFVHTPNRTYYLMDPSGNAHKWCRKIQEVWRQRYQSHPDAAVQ
Sequence of MKK7β(h) (O14733 whole entry): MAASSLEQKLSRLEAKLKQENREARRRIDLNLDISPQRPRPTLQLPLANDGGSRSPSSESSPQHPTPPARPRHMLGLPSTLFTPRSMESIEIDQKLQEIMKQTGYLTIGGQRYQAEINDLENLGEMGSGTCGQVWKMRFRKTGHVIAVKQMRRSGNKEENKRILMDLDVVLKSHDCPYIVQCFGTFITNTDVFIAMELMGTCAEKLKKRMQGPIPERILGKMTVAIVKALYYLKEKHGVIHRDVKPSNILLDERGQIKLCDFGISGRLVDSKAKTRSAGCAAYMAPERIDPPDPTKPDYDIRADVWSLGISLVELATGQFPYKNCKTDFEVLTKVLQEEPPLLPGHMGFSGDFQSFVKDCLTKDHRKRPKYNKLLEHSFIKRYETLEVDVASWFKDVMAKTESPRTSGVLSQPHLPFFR

**Q.** With `Cc1cc(Nc2cc(N3CCN(C)CC3)nc(Sc3ccc(NC(=O)C4CC4)cc3)n2)n[nH]1` [Compound E, Cyclopropane carboxylic acid {4-[4-(4-methyl-piperazin-1-yl)-6-(5-methyl-2H-pyrazol-3-ylamino)-pyrimidin-2-ylsulphanyl]-phenyl}-amide] as the molecule, how does the remaining activity at 0.2 µM [1] read?
**A.** 100%

**Q.** What about the remaining activity at 4 µM [1] of the same molecule?
**A.** 93%

**Q.** What about the remaining activity at 0.2 µM [2] of the same molecule?
**A.** 98%

**Q.** What about the remaining activity at 4 µM [2] of the same molecule?
**A.** 96%

**Q.** And the remaining activity at 0.2 µM [3]?
**A.** 71%

**Q.** And the remaining activity at 4 µM [3]?
**A.** 1%

**Q.** And the remaining activity at 0.2 µM [4]?
**A.** 107%

**Q.** And the remaining activity at 4 µM [4]?
**A.** 97%

**Q.** And the remaining activity at 0.2 µM [5]?
**A.** 50%

**Q.** And the remaining activity at 4 µM [5]?
**A.** 7%

**Q.** And the remaining activity at 0.2 µM [6]?
**A.** 93%

**Q.** What about the remaining activity at 4 µM [6] of the same molecule?
**A.** 68%

**Q.** What about the remaining activity at 0.2 µM [7] of the same molecule?
**A.** 100%

**Q.** And the remaining activity at 4 µM [7]?
**A.** 102%

**Q.** And the remaining activity at 0.2 µM [8]?
**A.** 95%

**Q.** And the remaining activity at 4 µM [8]?
**A.** 103%

**Q.** And the remaining activity at 0.2 µM [9]?
**A.** 87%

**Q.** What about the remaining activity at 4 µM [9] of the same molecule?
**A.** 87%

**Q.** What about the remaining activity at 0.2 µM [10] of the same molecule?
**A.** 34%

**Q.** What about the remaining activity at 4 µM [10] of the same molecule?
**A.** 2%

**Q.** And the remaining activity at 0.2 µM [11]?
**A.** 103%

**Q.** What about the remaining activity at 4 µM [11] of the same molecule?
**A.** 87%

**Q.** And the remaining activity at 0.2 µM [12]?
**A.** 97%

**Q.** What about the remaining activity at 4 µM [12] of the same molecule?
**A.** 86%

**Q.** What about the remaining activity at 0.2 µM [13] of the same molecule?
**A.** 95%

**Q.** What about the remaining activity at 4 µM [13] of the same molecule?
**A.** 48%

**Q.** And the remaining activity at 0.2 µM [14]?
**A.** 100%

**Q.** And the remaining activity at 4 µM [14]?
**A.** 98%

**Q.** What about the remaining activity at 0.2 µM [15] of the same molecule?
**A.** 105%

**Q.** And the remaining activity at 4 µM [15]?
**A.** 99%

**Q.** And the remaining activity at 0.2 µM [16]?
**A.** 80%

**Q.** What about the remaining activity at 4 µM [16] of the same molecule?
**A.** 84%

**Q.** What about the remaining activity at 0.2 µM [17] of the same molecule?
**A.** 87%

**Q.** What about the remaining activity at 4 µM [17] of the same molecule?
**A.** 20%

**Q.** What about the remaining activity at 0.2 µM [18] of the same molecule?
**A.** 0%

**Q.** What about the remaining activity at 4 µM [18] of the same molecule?
**A.** 0%

**Q.** What about the “percentage of enzyme activity that remains” value [19] of the same molecule?
**A.** 97%

**Q.** And the remaining activity at 0.2 µM [20]?
**A.** 25%

**Q.** What about the remaining activity at 4 µM [20] of the same molecule?
**A.** 35%

**Q.** And the “percentage of enzyme activity that remains” value ([21]; 0.2 μM Compound E)?
**A.** 91%

**Q.** And the “percentage of enzyme activity that remains” value ([21]; 4 μM Compound E)?
**A.** 97%

**Q.** What about the remaining activity at 0.2 µM [22] of the same molecule?
**A.** 93%

**Q.** What about the remaining activity at 4 µM [22] of the same molecule?
**A.** 106%

**Q.** What about the remaining activity at 0.2 µM [23] of the same molecule?
**A.** 110%

**Q.** And the remaining activity at 4 µM [23]?
**A.** 124%

**Q.** And the “percentage of enzyme activity that remains” value ([24]; 0.2 μM Compound E)?
**A.** 95%

**Q.** What about the “percentage of enzyme activity that remains” value ([24]; 4 μM Compound E) of the same molecule?
**A.** 61%

**Q.** And the remaining activity at 0.2 µM [25]?
**A.** 76%

**Q.** And the remaining activity at 4 µM [25]?
**A.** 26%

**Q.** What about the remaining activity at 4 µM [26] of the same molecule?
**A.** 4%

**Q.** What about the remaining activity at 0.2 µM [27] of the same molecule?
**A.** 96%

**Q.** What about the remaining activity at 4 µM [27] of the same molecule?
**A.** 92%

**Q.** What about the remaining activity at 0.2 µM [28] of the same molecule?
**A.** 115%

**Q.** What about the remaining activity at 4 µM [28] of the same molecule?
**A.** 97%

**Q.** And the “percentage of enzyme activity that remains” value ([29]; 0.2 μM Compound E)?
**A.** 116%

**Q.** What about the “percentage of enzyme activity that remains” value ([29]; 4 μM Compound E) of the same molecule?
**A.** 123%

**Q.** And the remaining activity at 0.2 µM [30]?
**A.** 100%

**Q.** What about the remaining activity at 4 µM [30] of the same molecule?
**A.** 78%
